{
  "source": "patent US12239650B2",
  "about": "“Compounds for treating and preventing net associated complications” (The Australian National University, priority 2019, dated 2025)",
  "key": {"[1]": {"test_system": "anti-proliferative effect of sepsis patients sera on HMEC-1", "type": "cell-based, human", "details": "HMEC-1, test compounds 200 μg ml^−1, FIG. 9d", "protocol": "Detection and analysis of cytotoxicity of septic patient sera for endothelial cells. To measure the cytotoxic activity of septic patients sera for endothelial cells in-vitro, HMEC-1 were seeded into 96-well plates at 2.5×10^4 well^−1 in medium and grown at 37° C. in 5% CO2 for 48 h prior to the addition of 50 μl of patient serum in the presence/absence of DNase I (10 μg ml^−1), anti-human histone 3 and histone 4 rabbit pAbs (200 μg ml^−1) (BioVision), or test compounds (200 μg ml^−1) and incubated for 3 h. ^3H-thymidine (0.5 μCi, MP Biomedical) was then added to each culture well in 20 μl of HMEC-1 medium and incubated for a further 24 h. At the conclusion of the incubation period plates were subjected to 3 freeze/thaw cycles (−70° C. for 30 min, then 37±0.5° C. for 30 min) prior to harvesting and measurement of ^3H-thymidine incorporation. […] Filters were dried at 80° C. and placed in Omnifilter plates (Perkin Elmer) then 20 μl of Microscint-O scintillation fluid (Perkin Elmer) was added to each well and the plate sealed with TopSeal-A adhesive film (Perkin Elmer). ^3H-thymidine incorporation was measured using a TopCount NXT™ Microplate Scintillation and Luminescence Counter (Packard Bioscience). Results expressed as a percentage of the proliferation of HMEC-1 not exposed to patient sera."}, "histones": {"test_system": "histones", "test": "In-vivo histone toxicity assay", "details": "mice; for Relative potency in protecting from histone-induced tissue pathologies / Protection from histone-induced liver damage, generalised tissue injury and kidney failure (circulating ALT, LDH, creatinine): FIG. 6a; for Protection from histone-induced liver damage, generalised tissue injury and kidney failure (circulating ALT, LDH, creatinine): compound i.p. 10 min prior to i.v. histones 50 mg kg^−1, blood 4 h post-histones, concentration-dependent", "protocol": "In-vivo histone toxicity assays. BALB/c female mice (5-6 weeks of age), that are more prone to histone-induced anemia and easier to inject i.v. at this young age than C57BL/6 mice, were injected i.p. with test compounds at concentrations indicated 10 min prior to i.v. injection of histones (50 mg kg^−1) in phosphate buffered saline. Retro-orbital bleeds were performed with glass Pasteur pipettes 10 min after histone injection and collected blood added to acid citrate dextrose (ACD), the 10 min blood sample being subjected to hematologic analyses for platelet and erythrocyte content using an ADVIA 2120i Hematology Analyzer. Spleens were also harvested at 10 min post-histone injection and splenic hemoglobin content quantified using a hemoglobin assay kit (Sigma-Aldrich). In the case of 4 h blood samples, male C57/BL/6 mice (6-8 weeks of age) were injected with test compounds and histones as above and plasma isolated and stored frozen for subsequent biochemical testing, with markers for liver (alanine aminotransferase, ALT), kidney (creatinine, Crea) and general tissue (lactate dehydrogenase, LDH) damage being determined by the Department of Pathology, The Canberra Hospital."}, "[2]": {"test_system": "histone-induced Ca2+ flux by HMEC-1", "test": "Calcium flux in endothelial cells (Indo-1 flow cytometry)", "type": "cell-based, human", "details": "compounds 100 μg ml^−1, histones 100 μg ml^−1, FIG. 5c", "protocol": "Calcium flux studies in endothelial cells. HMEC-1 (2×10^7 ml^−1) in RPMI-1640 medium were incubated with Indo-1 AM (5 μM) (ThermoFisher) (Tellam, R. L. & Parish, C. R. The effect of sulfated polysaccharides on the free intracellular calcium ion concentration of lymphocytes. Biochim Biophys Acta 930, 55-64 (1987); and Weston, S. A., Tellam, R. L. & Parish, C. R. Dextran sulfate induces changes in the free intracellular calcium ion concentration of a subpopulation of immature thymocytes. Immunol Cell Biol 69, 369-376 (1991)) at 37° C. for 60 min. After 3 washes with RPMI-1640 medium supplemented with 5% FCS the cells were resuspended at 4×10^6 ml^−1 in ice-chilled HEPES-buffered saline (NaCl 8 g l^−1, KCl 0.4 g l^−1, CaCl2 0.2 g l^−1, MgCl2·6H2O 0.2 g l^−1, D-glucose 1.8 g l^−1, pH 7.4) supplemented with 10 mM HEPES. […] Intracellular Ca^2+ flux was monitored using flow cytometry. […] After the exclusion of cellular debris and clumped cells (on the basis of FSC/SSC light scattering) the basal Ca^2+ level was monitored for 2 min before histone addition in the presence/absence of novel compounds. Ca^2+ levels were measured at 1, 3 and 9 min post-histone addition with a constant flow rate (˜300 events/sec). Ca^2+ flux was determined as an increase in the ratio of geometric mean fluorescence intensity (GMFI) of Ca^2+-bound over Ca^2+-unbound Indo-1."}, "[3]": {"test_system": "histone-mediated RBC aggregation", "test": "Histone-mediated erythrocyte aggregation (flow cytometry, scanning EM)", "type": "cell-based, human", "protocol": "Human erythrocytes (RBC) were incubated for 1 h at 37° C. alone (‘Saline’ control) or in the presence of histones (400 μg ml^−1) with or without mCBS (200 μg ml^−1). a, Percentage of RBC aggregation measured by flow cytometry based on forward (FSC) and side (SSC) scatter parameters and an appropriate gating strategy to discriminate aggregated from normal (non-aggregated) RBC. b, Scanning electron micrographs depicting level of RBC aggregation at low and high magnification following the three treatments depicted in (a). c, Concentration dependent inhibition of histone-mediated RBC aggregation by mCBS and MTS, in this case RBC aggregation being calculated by flow cytometry as fold increase in RBC auto-fluorescence relative to RBC in the absence of histones. The fold increase values also provide an estimate of the number of RBC in each aggregate. d, Retention of RBC in an artificial spleen that measures RBC deformability. RBC were incubated with increasing concentrations of histones for 1 h and, at the highest concentration used (400 μg ml^−1), also incubated with either mCBS or MTS (100 and 200 μg ml^−1), prior to passage through the artificial spleen. Data are mean±s.e.m. (n=3 biological replicates). ***P<0.001, ****P<0.0001 (one way ANOVA with Dunnett's multiple comparisons test).\nIn vitro erythrocyte microscopy, aggregation, fragility and deformability assays. […] J Biol Chem 289, 19531-19537 (2014)). Similarly, erythrocyte fragility induced by histones, in the presence or absence of inhibitors, was quantified using a sheer stress assay that we developed recently (Kordbacheh, F., O'Meara, C. H., Coupland, L. A., Lelliott, P. M. & Parish, C. R. Extracellular histones induce erythrocyte fragility and anemia. Blood 130, 2884-2888 (2017)). Finally, the reduced deformability of erythrocytes in the presence of histones and the effect of inhibitors on this process was assessed by measuring the passage of erythrocytes through an artificial human spleen (Kordbacheh, F., O'Meara, C. H., Coupland, L. A., Lelliott, P. M. & Parish, C. R. Extracellular histones induce erythrocyte fragility and anemia. Blood 130, 2884-2888 (2017); and Deplaine, G. et al. The sensing of poorly deformable red blood cells by the human spleen can be mimicked in vitro. Blood 117, e88-95 (2011))."}},
  "data": [
    {"smiles": "O=S(=O)(O)OC[C@H]1O[C@@H](O[C@H]2[C@H](OS(=O)(=O)O)[C@@H](OS(=O)(=O)O)C(OS(=O)(=O)O)O[C@@H]2COS(=O)(=O)O)[C@H](OS(=O)(=O)O)[C@@H](OS(=O)(=O)O)[C@@H]1OS(=O)(=O)O", "note": "(some centres unmarked) [CBS, cellobiose per-O-sulfate]", "values": [
      {"measurement": "Effect on anti-proliferative activity of the 10 most inhibitory septic patient sera", "setting": "[1]", "result": "significantly overrode"},
      {"measurement": "Relative potency in protecting from histone-induced tissue pathologies", "setting": "histones", "result": "equally active"},
      {"measurement": "Protection from histone-induced liver damage, generalised tissue injury and kidney failure (circulating ALT, LDH, creatinine)", "setting": "histones", "result": "protected"},
      {"measurement": "Effect on histone-induced Ca2+ response", "setting": "[2]", "result": "substantially inhibited"}
    ]},
    {"smiles": "O=S(=O)(O)OC[C@H]1O[C@H](O[C@H]2[C@H](OS(=O)(=O)O)[C@@H](OS(=O)(=O)O)C(OS(=O)(=O)O)O[C@@H]2COS(=O)(=O)O)[C@H](OS(=O)(=O)O)[C@@H](OS(=O)(=O)O)[C@@H]1O[C@H]1O[C@H](COS(=O)(=O)O)[C@@H](OS(=O)(=O)O)[C@H](OS(=O)(=O)O)[C@H]1OS(=O)(=O)O", "note": "(some centres unmarked) [MTS, maltotriose per-O-sulfate]", "values": [
      {"measurement": "Effectiveness of MTS relative to mCBS in preventing RBC aggregation", "setting": "[3]; FIG. 3c", "result": "~2", "unit": "fold"},
      {"measurement": "Prevention of histone-mediated RBC aggregation (auto-fluorescence)", "setting": "[3]; histones 400 μg ml^−1, FIG. 3c", "result": "prevented aggregation in a concentration dependent manner"},
      {"measurement": "Effect on anti-proliferative activity of the 10 most inhibitory septic patient sera", "setting": "[1]", "result": "did not"},
      {"measurement": "Histone-induced thrombocytopenia and anaemia", "setting": "histones; 100 mg kg^−1 i.p., 10 min post-histones, FIG. 6b", "result": "prevented"},
      {"measurement": "Relative potency in protecting from histone-induced tissue pathologies", "setting": "histones", "result": "most potent"},
      {"measurement": "Protection from histone-induced liver damage, generalised tissue injury and kidney failure (circulating ALT, LDH, creatinine)", "setting": "histones", "result": "protected"},
      {"measurement": "Effect on histone-induced Ca2+ response", "setting": "[2]", "result": "totally ablated"}
    ]}
  ]
}
